Drawing on article PMC5681660, “Reduced hepatitis B and D viral entry using clinically applied drugs as novel inhibitors of the bile acid transporter NTCP” (Scientific Reports, 2017), this text covers B-score binding assay, Ranking score and B-score functional assay for 28 molecules.

Counter-ions that a name gives are not always drawn. Like-named read-outs stand apart in the source and are kept apart here. Starred links: 1 amine or outer side, 2 acyl side, 3 side chain; linkers in the order of their positions; H or OH if unused. Positions of bridges follow the written chain, without caps; N, C: chain ends. Non-standard residues stand in square brackets, D forms with d. Residues, ends and D or L forms follow the SMILES beside them. *: point of attachment. X1 = NC1=N[C@@H]([C@H](N[*:1])C(=O)[*:2])C[C@H](O)N1; ΔAla(Z-3-ureido) = NC(=O)N/C=C(\N)C(=O)O; β3hOrn = NCCC[C@H](N)CC(=O)*; Dap = NC[C@H](N)C(=O)O

The target of assay [1] is T1, human NTCP (Homo sapiens, UniProt Q14973).
T1 sequence (Q14973 1-349): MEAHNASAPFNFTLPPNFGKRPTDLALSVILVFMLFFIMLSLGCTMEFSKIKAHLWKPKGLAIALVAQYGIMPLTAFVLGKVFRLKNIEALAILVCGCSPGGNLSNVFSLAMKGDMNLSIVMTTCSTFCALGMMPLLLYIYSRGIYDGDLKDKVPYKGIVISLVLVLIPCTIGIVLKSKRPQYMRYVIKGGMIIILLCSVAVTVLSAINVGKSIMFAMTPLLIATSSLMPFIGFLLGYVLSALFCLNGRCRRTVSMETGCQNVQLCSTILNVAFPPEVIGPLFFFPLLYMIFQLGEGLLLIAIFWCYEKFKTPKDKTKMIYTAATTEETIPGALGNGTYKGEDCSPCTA
As to the kind of experiment: Screening fluorescent competitive Myrcludex B-FITC binding assay (96-well, 10 µM drug).

Assay [2] has as its target T1, human NTCP. As to the kind of experiment: Screening taurocholate uptake assay (96-well, [14C]taurocholate, 10 µM drug).
Setting [3] is: screen, 10 µM drug, Myrcludex B-FITC binding.
Where [4] appears, read: combined ranking from functional and binding screening assays.
[5] abbreviates: screen, 10 µM drug, taurocholate uptake.
[6] abbreviates: Prestwick library screen, Myrcludex B-FITC binding, 10 µM drug.
Where [7] appears, read: Prestwick library screen, taurocholate uptake, 10 µM drug.
[8] abbreviates: ranking score beside the functional and binding assay B-scores of the screen.
Setting [9] is: Prestwick library screen, 10 µM drug, B-score of Myrcludex B-FITC binding.
Setting [10] is: Prestwick library screen, 10 µM drug, B-score of taurocholate uptake.
[11] abbreviates: combined ranking from functional and binding assay B-scores.

With `CCN1CCCC(OC(=O)C(c2ccccc2)c2ccccc2)C1` (stereo not drawn) [Piperidolate hydrochloride], the B-score binding assay at human NTCP [1] (setting [3]) is -1.968. For the same molecule, the Ranking score on human NTCP [2] (setting [4]) is on record as 357.281. Further, the B-score functional assay on human NTCP [2] (setting [5]) worked out at 1.475.

Take `CCOc1nc2cccc(C(=O)O)c2n1Cc1ccc(-c2ccccc2-c2nnn[nH]2)cc1` [Candesartan]: the B-score binding assay on human NTCP [1] (setting [6]) came out at 0.128. At human NTCP [2] (setting [7]), this molecule gave a B-score functional assay of 0.287. This molecule also came in with a Ranking score on human NTCP [2] (setting [8]) of 798.474.

For `CN1C(C(=O)Nc2ccccn2)=C(O)c2ccccc2S1(=O)=O` [Piroxicam], the B-score binding assay on human NTCP [1] (setting [6]) was -0.312. The same molecule came in with a B-score functional assay on human NTCP [2] (setting [7]) of 0.754. The same molecule returned a Ranking score on human NTCP [2] (setting [8]) of 662.993.

At human NTCP [1], `C[C@]12CCC(=O)C(O)=C1CC[C@@H]1[C@@H]2CC[C@]2(C)C(=O)CC[C@@H]12` [Formestane] returned a B-score binding assay of -0.147. In addition, at human NTCP [2], the B-score functional assay is recorded as -0.613 and the Ranking score was 420.899.

Regarding `COC(=O)Nc1nc2ccc(C(=O)c3cccs3)cc2[nH]1` [Nocodazole], on human NTCP [1] (setting [3]), the B-score binding assay stood at 0.497. At human NTCP [2] (setting [4]), the Ranking score was found to be 428.035. Further, the B-score functional assay at human NTCP [2] (setting [5]) is -1.345.

As for `NCCC[C@H](N)CC(=O)N[C@H]1CNC(=O)[C@H]([C@H]2C[C@H](O)NC(N)=N2)NC(=O)/C(=C/NC(N)=O)NC(=O)[C@H](CO)NC(=O)[C@H](CO)NC1=O.O=S(=O)(O)O` [Viomycin sulfate] (β3hOrn-[Dap]SS[ΔAla(Z-3-ureido)][X1]; lactam 1-C), the B-score binding assay on human NTCP [1] (setting [9]) stood at 0.234. The molecule further registered a B-score functional assay at human NTCP [2] (setting [10]) of 0.436. The Ranking score at human NTCP [2] (setting [11]) was 846.67.

Regarding `C[C@H]1C[C@H]2[C@@H]3CCC4=CC(=O)C=C[C@]4(C)[C@@]3(F)[C@@H](O)C[C@]2(C)[C@@]1(O)C(=O)CO` [Betamethasone], on human NTCP [1] (setting [6]), the B-score binding assay is -0.13. The B-score functional assay on human NTCP [2] (setting [7]) is given as 0.975. For the same molecule, on human NTCP [2] (setting [8]), the Ranking score was determined as 747.052.

For `COc1cc2c(cc1OC)C(C)NCC2.Cl` (stereo not drawn), the B-score binding assay at human NTCP [1] (setting [9]) came out at 0.343. For the same molecule, on human NTCP [2] (setting [10]), the B-score functional assay worked out at 2.498. For the same molecule, on human NTCP [2] (setting [11]), the Ranking score is recorded as 1023.83.

In the case of `CCC1(c2ccccc2)C(=O)NCNC1=O` [Primidone], the B-score binding assay at human NTCP [1] (setting [6]) is reported as -0.009. In addition, at human NTCP [2] (setting [7]), the B-score functional assay worked out at 1.471. The molecule also showed a Ranking score at human NTCP [2] (setting [8]) of 845.018.

On to `CCN(CC)CCOCCOC(=O)C1(c2ccccc2)CCCC1` [Carbetapentane citrate], for which the B-score binding assay on human NTCP [1] (setting [9]) worked out at 1.7. The B-score functional assay at human NTCP [2] (setting [10]) is on record as 0.114. In addition, the Ranking score on human NTCP [2] (setting [11]) stood at 943.43.

`CC(=O)O[C@]1(C(C)=O)CC[C@H]2[C@@H]3C=C(C)C4=CC(=O)CC[C@@H]4[C@H]3CC[C@@]21C` [Nomegestrol acetate]: at human NTCP [1] (setting [3]), the B-score binding assay was found to be 1.174. Besides, the Ranking score on human NTCP [2] (setting [4]) is 298.149. The same molecule had a B-score functional assay on human NTCP [2] (setting [5]) of -2.71.

For `CCCCC1C(=O)N(c2ccccc2)N(c2ccccc2)C1=O` [Phenylbutazone], the B-score binding assay on human NTCP [1] (setting [3]) was -0.956. For the same molecule, the Ranking score at human NTCP [2] (setting [4]) was determined as 440.765. Also, the B-score functional assay at human NTCP [2] (setting [5]) was 0.138.

In turn, `C[C@]12CC[C@@H](O)C[C@@H]1CC[C@@H]1[C@@H]2CC[C@]2(C)C(=O)CC[C@@H]12` [Androsterone] showed a B-score binding assay on human NTCP [1] of 1.069. On human NTCP [2], this molecule registered a B-score functional assay of 0.451 and a Ranking score of 969.912.

Turning to `O=P1(NCCCl)OCCCN1CCCl` (stereo not drawn) [Ifosfamide], the B-score binding assay at human NTCP [1] (setting [3]) is -1.438. For the same molecule, the Ranking score at human NTCP [2] (setting [4]) was found to be 334.739. The molecule also showed a B-score functional assay at human NTCP [2] (setting [5]) of 0.023.

`CN[C@H](CC(C)C)C(=O)N[C@H]1C(=O)N[C@@H](CC(N)=O)C(=O)N[C@H]2C(=O)N[C@H]3C(=O)N[C@H](C(=O)N[C@H](C(=O)O)c4cc(O)cc(O)c4-c4cc3ccc4O)[C@H](O)c3ccc(c(Cl)c3)Oc3cc2cc(c3O[C@@H]2O[C@H](CO)[C@@H](O)[C@H](O)[C@H]2O[C@H]2C[C@](C)(N)[C@H](O)[C@H](C)O2)Oc2ccc(cc2Cl)[C@H]1O` [Vancomycin hydrochloride]: on human NTCP [1], the B-score binding assay worked out at 1.401. At human NTCP [2], this molecule returned a B-score functional assay of -0.819 and a Ranking score of 571.108.

On to `CCCCC[C@H](O)/C=C/[C@H]1[C@H](O)CC(=O)[C@@H]1CCCCCCC(=O)O` [Alprostadil], for which the B-score binding assay at human NTCP [1] (setting [6]) was 0.02. Further, at human NTCP [2] (setting [7]), the B-score functional assay is given as 0.966. This molecule also returned a Ranking score on human NTCP [2] (setting [8]) of 841.475.

Molecule `COc1ccc(CN2CCN(C(c3ccc(F)cc3)c3ccc(F)cc3)CC2)c(OC)c1OC.Cl.Cl` [Lomerizine hydrochloride] showed a B-score binding assay at human NTCP [1] (setting [3]) of -1.084. Moreover, the Ranking score at human NTCP [2] (setting [4]) turned out to be 328.713. Also, the B-score functional assay on human NTCP [2] (setting [5]) is listed as -0.214.

In turn, `NS(=O)(=O)c1cc(Cl)c(Cl)c(S(N)(=O)=O)c1` [Dichlorphenamide] displayed a B-score binding assay on human NTCP [1] (setting [9]) of 2.215. This molecule also had a B-score functional assay at human NTCP [2] (setting [10]) of 0.709. Moreover, the Ranking score on human NTCP [2] (setting [11]) worked out at 1091.62.

Take `O=C1c2ccccc2S(=O)(=O)N1CCCCN1CCN(c2ncccn2)CC1` [Ipsapirone]: at human NTCP [1] (setting [9]), the B-score binding assay came to 0.854. The molecule also yielded a B-score functional assay at human NTCP [2] (setting [10]) of 1.921. Also, at human NTCP [2] (setting [11]), the Ranking score was found to be 1093.42.

`CC(C)OC(=O)CCC/C=C\C[C@@H]1[C@@H](CC[C@@H](O)CCc2ccccc2)[C@H](O)C[C@@H]1O` [Latanoprost] returned a B-score binding assay on human NTCP [1] (setting [3]) of 0.817. Further, the Ranking score at human NTCP [2] (setting [4]) came out at 347.885. The B-score functional assay on human NTCP [2] (setting [5]) is reported as -2.131.

On to `CCN(CC)C(C)C(=O)c1ccccc1` (stereo not drawn) [Amfepramone hydrochloride], for which the B-score binding assay on human NTCP [1] (setting [9]) is given as 2.906. Also, the B-score functional assay at human NTCP [2] (setting [10]) is 0.339. The Ranking score at human NTCP [2] (setting [11]) is listed as 1034.63.

Consider `CC[C@@H](CO)NC(=O)[C@@H]1C=C2c3cccc4[nH]cc(c34)C[C@H]2N(C)C1` [Methylergometrine maleate], for which the B-score binding assay at human NTCP [1] (setting [9]) was 0.851. Further, the B-score functional assay at human NTCP [2] (setting [10]) is listed as 0.963. Moreover, the Ranking score at human NTCP [2] (setting [11]) is recorded as 1029.08.

With `CCOc1ccc2c(c1)C(C)=CC(C)(C)N2` [Ethoxyquin], the B-score binding assay at human NTCP [1] (setting [3]) is on record as -1.217. Moreover, on human NTCP [2] (setting [4]), the Ranking score amounted to 406.463. Besides, the B-score functional assay at human NTCP [2] (setting [5]) is listed as 0.194.

The molecule `O.O=P(O)(O)C(O)(Cc1cccnc1)P(=O)(O)O` [Risedronic acid monohydrate] came in with a B-score binding assay on human NTCP [1] (setting [9]) of 0.727. The molecule further gave a B-score functional assay on human NTCP [2] (setting [10]) of 1.315. Further, at human NTCP [2] (setting [11]), the Ranking score is on record as 1045.06.

`CC(C)c1c(CN(C)C(C)Cc2ccccc2)n(C)n(-c2ccccc2)c1=O` (stereo not drawn) [Famprofazone] came in with a B-score binding assay on human NTCP [1] (setting [3]) of -0.284. The Ranking score on human NTCP [2] (setting [4]) was 376.915. Besides, the B-score functional assay on human NTCP [2] (setting [5]) is listed as -0.708.

In the case of `CN[C@@H]1C[C@@H](c2ccc(Cl)c(Cl)c2)c2ccccc21` [Indatraline hydrochloride], the B-score binding assay at human NTCP [1] (setting [6]) worked out at 0.336. Also, the B-score functional assay on human NTCP [2] (setting [7]) is on record as 0.152. At human NTCP [2] (setting [8]), this molecule registered a Ranking score of 814.16.

On to `CN(C)C(=O)Oc1cccc([N+](C)(C)C)c1` [Neostigmine bromide], for which, on human NTCP [1] (setting [6]), the B-score binding assay is 0.229. At human NTCP [2] (setting [7]), the B-score functional assay is listed as -0.02. For the same molecule, the Ranking score at human NTCP [2] (setting [8]) is 703.343.

Consider `C#C[C@]1(O)CC[C@H]2[C@@H]3CCC4=CC(=O)CC[C@]4(C)[C@H]3CC[C@@]21C` [Ethisterone], for which the B-score binding assay on human NTCP [1] (setting [6]) worked out at 2.018. Moreover, at human NTCP [2] (setting [7]), the B-score functional assay is recorded as -0.564. The molecule further returned a Ranking score at human NTCP [2] (setting [8]) of 653.06.
